Activity and IC50 data for 20 molecules are collected here from ChEMBL document CHEMBL5579824, “Novel Hsp90-Targeting PROTACs: Enhanced synergy with cisplatin in combination therapy of cervical cancer” (Eur J Med Chem, 2024).

The IC50 is the concentration needed to halve the response being measured.

Each structure is given as a SMILES string. The source made the active and inactive calls. No cut-off for these calls is given here.

Assay [1] addresses T1, Protein cereblon/Heat shock protein HSP 90-alpha/Heat shock protein HSP 90-beta (Homo sapiens) (UniProt P07900+P08238+Q96SW2). Kind of assay: Protac activity at CRBN/Hsp90 in human SiHa cells assessed as induction of Hsp90 degradation at 1 uM incubated for 10 hrs by Western blot analysis. The assay is classed as cell-based. (In general: A western blot detects proteins with antibodies after separation by electrophoresis.)

The test system of the next assay is SiHa. Kind of assay: Antiproliferative activity against human SiHa cells assessed as reduction in cell viability incubated for 72 hrs by CCK-8 assay. It counts as functional, cell-based.
The target of assay [2] is T1, Protein cereblon/Heat shock protein HSP 90-alpha/Heat shock protein HSP 90-beta (Homo sapiens). Nature of the assay: Protac activity at CRBN/Hsp90 in human SiHa cells assessed as induction of Hsp90 degradation (causing hook effect) at > 0.1 uM incubated for 10 hrs by Western blot analysis. It counts as cell-based.
The target in assay [3] is T2, von Hippel-Lindau disease tumor suppressor/Heat shock protein HSP 90-alpha/Heat shock protein HSP 90-beta (Homo sapiens) (UniProt P07900+P08238+P40337). Nature of the assay: Protac activity at VHL/Hsp90 in human SiHa cells assessed as induction of Hsp90 degradation at 1 uM incubated for 10 hrs by Western blot analysis. It counts as cell-based.
T2 sequence (P08238 whole entry, looked up, other chains not shown): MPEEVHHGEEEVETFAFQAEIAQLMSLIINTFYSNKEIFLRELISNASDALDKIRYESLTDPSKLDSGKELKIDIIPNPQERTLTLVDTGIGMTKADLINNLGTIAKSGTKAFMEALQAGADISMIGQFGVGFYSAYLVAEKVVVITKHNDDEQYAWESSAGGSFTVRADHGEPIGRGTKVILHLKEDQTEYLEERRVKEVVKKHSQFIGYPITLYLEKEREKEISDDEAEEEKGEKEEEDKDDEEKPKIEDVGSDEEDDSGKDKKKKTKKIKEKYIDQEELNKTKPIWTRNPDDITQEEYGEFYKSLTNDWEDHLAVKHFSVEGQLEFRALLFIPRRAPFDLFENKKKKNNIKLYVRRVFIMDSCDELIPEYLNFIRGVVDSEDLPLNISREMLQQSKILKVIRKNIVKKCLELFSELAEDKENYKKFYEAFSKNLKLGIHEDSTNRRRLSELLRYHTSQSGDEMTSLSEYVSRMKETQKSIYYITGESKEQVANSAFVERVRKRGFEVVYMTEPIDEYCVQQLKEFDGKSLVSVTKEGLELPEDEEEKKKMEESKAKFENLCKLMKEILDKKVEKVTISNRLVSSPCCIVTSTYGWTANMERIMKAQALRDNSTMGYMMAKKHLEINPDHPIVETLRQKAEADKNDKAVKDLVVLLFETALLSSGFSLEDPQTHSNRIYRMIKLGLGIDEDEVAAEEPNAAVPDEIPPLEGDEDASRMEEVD
T2 sequence (P40337 whole entry, looked up, other chains not shown): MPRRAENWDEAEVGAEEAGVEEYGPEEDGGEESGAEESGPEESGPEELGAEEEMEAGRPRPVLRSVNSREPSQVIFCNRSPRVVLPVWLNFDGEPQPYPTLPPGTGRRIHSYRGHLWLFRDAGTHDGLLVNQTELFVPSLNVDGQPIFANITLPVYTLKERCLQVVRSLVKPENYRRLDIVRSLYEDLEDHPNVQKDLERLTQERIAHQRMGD
In assay [4] the target is T1, Protein cereblon/Heat shock protein HSP 90-alpha/Heat shock protein HSP 90-beta (Homo sapiens). Kind of assay: Protac activity at CRBN/Hsp90 in human SiHa cells assessed as induction of Hsp90 degradation at 1 uM incubated for 2 hrs by Western blot analysis. It counts as cell-based.
The target in assay [5] is T2, von Hippel-Lindau disease tumor suppressor/Heat shock protein HSP 90-alpha/Heat shock protein HSP 90-beta (Homo sapiens). Nature of the assay: Protac activity at VHL/Hsp90 in human SiHa cells assessed as induction of Hsp90 degradation (causing hook effect) at > 0.1 uM incubated for 10 hrs by Western blot analysis. It counts as cell-based.

With `CC1(C)CC(=O)c2c(C(F)(F)F)nn(-c3ccc(C(N)=O)c(NCCCNC(=O)CCCCCCCNc4cccc5c4CN(C4CCC(=O)NC4=O)C5=O)c3)c2C1` (configuration not stated), the result in assay [1] was inactive. The IC50 in the assay on SiHa came to 5520 nM.
As to `CC1(C)CC(=O)c2c(C(F)(F)F)nn(-c3ccc(C(N)=O)c(N[C@H]4CC[C@H](OC(=O)CNC(=O)CCCCCCCCCNc5cccc6c5CN(C5CCC(=O)NC5=O)C6=O)CC4)c3)c2C1` (some centres not stated), the IC50 in the assay with SiHa worked out at 140 nM.
`CC1(C)CC(=O)c2c(C(F)(F)F)nn(-c3ccc(C(N)=O)c(N[C@H]4CC[C@H](OC(=O)CNC(=O)COCCOCCNc5cccc6c5C(=O)N(C5CCC(=O)NC5=O)C6=O)CC4)c3)c2C1` (some centres not stated): the result in assay [1] and in assay [2] was inactive. Further, the concentration for half-maximal inhibition (IC50) with SiHa was found to be 40 nM.
As for `CC1(C)CC(=O)c2c(C(F)(F)F)nn(-c3ccc(C(N)=O)c(NCCCNC(=O)CCCCCCCCCNc4cccc5c4CN(C4CCC(=O)NC4=O)C5=O)c3)c2C1` (configuration not stated), the result in assay [1] was inactive. Moreover, the IC50 with SiHa came to 430 nM.
Take `CC1(C)CC(=O)c2c(C(F)(F)F)nn(-c3ccc(C(N)=O)c(N[C@H]4CC[C@H](OC(=O)CNC(=O)CCCNc5cccc6c5CN(C5CCC(=O)NC5=O)C6=O)CC4)c3)c2C1` (some centres not stated): in assay [1], the outcome was Active. Moreover, in the assay with SiHa, the IC50 was 70 nM.
The like results for `CC1(C)CC(=O)c2c(C(F)(F)F)nn(-c3ccc(C(N)=O)c(NCCCNC(=O)COCCOCCNc4cccc5c4CN(C4CCC(=O)NC4=O)C5=O)c3)c2C1` (configuration not stated) were, in that order, “inactive” and 7300 nM.
`Cc1ncsc1-c1ccc([C@H](C)NC(=O)[C@@H]2C[C@@H](O)CN2C(=O)[C@@H](NCCCCCCCC(=O)NCC(=O)O[C@H]2CC[C@H](Nc3cc(-n4nc(C(F)(F)F)c5c4CC(C)(C)CC5=O)ccc3C(N)=O)CC2)C(C)(C)C)cc1`: the IC50 with SiHa turned out to be 170 nM. For the same molecule, in assay [3], the result was Active.
Consider `CN1C(=O)CCC(N2Cc3c(NCCCCCCCC(=O)NCC(=O)O[C@H]4CC[C@H](Nc5cc(-n6nc(C(F)(F)F)c7c6CC(C)(C)CC7=O)ccc5C(N)=O)CC4)cccc3C2=O)C1=O` (some centres not stated), for which the outcome in assay [4] was inactive.
As for `Cc1ncsc1-c1ccc([C@H](C)NC(=O)[C@@H]2C[C@@H](O)CN2C(=O)[C@@H](NCCCCCCCCCC(=O)NCC(=O)O[C@H]2CC[C@H](Nc3cc(-n4nc(C(F)(F)F)c5c4CC(C)(C)CC5=O)ccc3C(N)=O)CC2)C(C)(C)C)cc1`, in the assay on SiHa, the half-maximal inhibitory concentration (IC50) came out at 230 nM. Moreover, the outcome in assay [3] was Active.
Consider `CC1(C)CC(=O)c2c(C(F)(F)F)nn(-c3ccc(C(N)=O)c(NCCCNC(=O)CCCCCNc4cccc5c4CN(C4CCC(=O)NC4=O)C5=O)c3)c2C1` (configuration not stated), for which the result in assay [1] was inactive. Besides, the IC50 in the assay with SiHa turned out to be 9610 nM.
`CC1(C)CC(=O)c2c(C(F)(F)F)nn(-c3ccc(C(N)=O)c(N[C@H]4CC[C@H](OC(=O)CNC(=O)CCCCCCNc5cccc6c5CN(C5CCC(=O)NC5=O)C6=O)CC4)c3)c2C1` (some centres not stated): the result in assay [1] was Active. In addition, the IC50 in the assay on SiHa is 240 nM.
Consider `CC1(C)CC(=O)c2c(C(F)(F)F)nn(-c3ccc(C(N)=O)c(N[C@H]4CC[C@H](OC(=O)CN)CC4)c3)c2C1` [SNX 5422], for which, in the assay on SiHa, the IC50 was found to be 14 nM.
Same read-out and setting: for `CC1(C)CC(=O)c2c(C(F)(F)F)nn(-c3ccc(C(N)=O)c(N[C@H]4CC[C@H](OC(=O)CNC(=O)CCCCNc5cccc6c5CN(C5CCC(=O)NC5=O)C6=O)CC4)c3)c2C1` (some centres not stated) the value was 310 nM; for `Cc1ncsc1-c1ccc([C@H](C)NC(=O)[C@@H]2C[C@@H](O)CN2C(=O)[C@@H](NCCCCCC(=O)NCC(=O)O[C@H]2CC[C@H](Nc3cc(-n4nc(C(F)(F)F)c5c4CC(C)(C)CC5=O)ccc3C(N)=O)CC2)C(C)(C)C)cc1`, 660 nM.
For the molecule `CC1(C)CC(=O)c2c(C(F)(F)F)nn(-c3ccc(C(N)=O)c(NCCCNC(=O)CCCCCCCCCCNc4cccc5c4CN(C4CCC(=O)NC4=O)C5=O)c3)c2C1` (configuration not stated), the outcome in assay [1] was inactive. The IC50 in the assay with SiHa was 560 nM.
The like results for `CC1(C)CC(=O)c2c(C(F)(F)F)nn(-c3ccc(C(N)=O)c(N[C@H]4CC[C@H](NC(=O)CCCCCCCCCNc5cccc6c5CN(C5CCC(=O)NC5=O)C6=O)CC4)c3)c2C1` (some centres not stated) were, in that order, “inactive” and 190 nM.
Take `CC1(C)CC(=O)c2c(C(F)(F)F)nn(-c3ccc(C(N)=O)c(N[C@H]4CC[C@H](NC(=O)CNC(=O)CCCCCCCCCNc5cccc6c5CN(C5CCC(=O)NC5=O)C6=O)CC4)c3)c2C1` (some centres not stated): in assay [1], the result was inactive. Moreover, the IC50 in the assay with SiHa came to 750 nM.
Turning to `Cc1ncsc1-c1ccc([C@H](C)NC(=O)[C@@H]2C[C@@H](O)CN2C(=O)[C@@H](NCCOCCOCC(=O)NCC(=O)O[C@H]2CC[C@H](Nc3cc(-n4nc(C(F)(F)F)c5c4CC(C)(C)CC5=O)ccc3C(N)=O)CC2)C(C)(C)C)cc1`, in the assay on SiHa, the IC50 was determined as 30 nM. Further, the result in assay [3] and in assay [5] was inactive.
Consider `CC1(C)CC(=O)c2c(C(F)(F)F)nn(-c3ccc(C(N)=O)c(N[C@H]4CC[C@H](NCCCCCCCCCC(=O)Nc5cccc6c5CN(C5CCC(=O)NC5=O)C6=O)CC4)c3)c2C1` (some centres not stated), for which the outcome in assay [1] was inactive. The half-inhibitory concentration (IC50) in the assay on SiHa is 5270 nM.
In the same order, the values of `CC1(C)CC(=O)c2c(C(F)(F)F)nn(-c3ccc(C(N)=O)c(N[C@H]4CC[C@H](OC(=O)CNC(=O)CCCCCNc5cccc6c5CN(C5CCC(=O)NC5=O)C6=O)CC4)c3)c2C1` (some centres not stated) are “Active” and 460 nM.
